For test [1], the target named is T1, SMARCA2 (Homo sapiens, UniProt P51531).
T1 construct: endogenous in cells
Description: SMARCA2 Cellular Degradation Assay (Western blot analysis on Jess platform). The test is classed as cell-based. The conditions noted are these: for DC50 / Dmax: cellular degradation; for Fold Selectivity SMARCA4/2: ratio DC50 SMARCA4 / DC50 SMARCA2. In short, it runs like this:
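Lysates of cells extracted from tumors, 5 μg total protein per capillary, were probed for SMARCA2 and β-actin by capillary Western on Jess using chemiluminescence and fluorescence detection. SMARCA2 peak area was background-subtracted and normalized to actin, then expressed as % remaining relative to vehicle control.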
For orientation: Immunoblotting shows a protein as a band on a membrane.

In test [2] the target is T2, SMARCA4 (Homo sapiens, UniProt P51532).
T2 construct: endogenous in cells
T2 sequence (P51532 whole entry, species assumed): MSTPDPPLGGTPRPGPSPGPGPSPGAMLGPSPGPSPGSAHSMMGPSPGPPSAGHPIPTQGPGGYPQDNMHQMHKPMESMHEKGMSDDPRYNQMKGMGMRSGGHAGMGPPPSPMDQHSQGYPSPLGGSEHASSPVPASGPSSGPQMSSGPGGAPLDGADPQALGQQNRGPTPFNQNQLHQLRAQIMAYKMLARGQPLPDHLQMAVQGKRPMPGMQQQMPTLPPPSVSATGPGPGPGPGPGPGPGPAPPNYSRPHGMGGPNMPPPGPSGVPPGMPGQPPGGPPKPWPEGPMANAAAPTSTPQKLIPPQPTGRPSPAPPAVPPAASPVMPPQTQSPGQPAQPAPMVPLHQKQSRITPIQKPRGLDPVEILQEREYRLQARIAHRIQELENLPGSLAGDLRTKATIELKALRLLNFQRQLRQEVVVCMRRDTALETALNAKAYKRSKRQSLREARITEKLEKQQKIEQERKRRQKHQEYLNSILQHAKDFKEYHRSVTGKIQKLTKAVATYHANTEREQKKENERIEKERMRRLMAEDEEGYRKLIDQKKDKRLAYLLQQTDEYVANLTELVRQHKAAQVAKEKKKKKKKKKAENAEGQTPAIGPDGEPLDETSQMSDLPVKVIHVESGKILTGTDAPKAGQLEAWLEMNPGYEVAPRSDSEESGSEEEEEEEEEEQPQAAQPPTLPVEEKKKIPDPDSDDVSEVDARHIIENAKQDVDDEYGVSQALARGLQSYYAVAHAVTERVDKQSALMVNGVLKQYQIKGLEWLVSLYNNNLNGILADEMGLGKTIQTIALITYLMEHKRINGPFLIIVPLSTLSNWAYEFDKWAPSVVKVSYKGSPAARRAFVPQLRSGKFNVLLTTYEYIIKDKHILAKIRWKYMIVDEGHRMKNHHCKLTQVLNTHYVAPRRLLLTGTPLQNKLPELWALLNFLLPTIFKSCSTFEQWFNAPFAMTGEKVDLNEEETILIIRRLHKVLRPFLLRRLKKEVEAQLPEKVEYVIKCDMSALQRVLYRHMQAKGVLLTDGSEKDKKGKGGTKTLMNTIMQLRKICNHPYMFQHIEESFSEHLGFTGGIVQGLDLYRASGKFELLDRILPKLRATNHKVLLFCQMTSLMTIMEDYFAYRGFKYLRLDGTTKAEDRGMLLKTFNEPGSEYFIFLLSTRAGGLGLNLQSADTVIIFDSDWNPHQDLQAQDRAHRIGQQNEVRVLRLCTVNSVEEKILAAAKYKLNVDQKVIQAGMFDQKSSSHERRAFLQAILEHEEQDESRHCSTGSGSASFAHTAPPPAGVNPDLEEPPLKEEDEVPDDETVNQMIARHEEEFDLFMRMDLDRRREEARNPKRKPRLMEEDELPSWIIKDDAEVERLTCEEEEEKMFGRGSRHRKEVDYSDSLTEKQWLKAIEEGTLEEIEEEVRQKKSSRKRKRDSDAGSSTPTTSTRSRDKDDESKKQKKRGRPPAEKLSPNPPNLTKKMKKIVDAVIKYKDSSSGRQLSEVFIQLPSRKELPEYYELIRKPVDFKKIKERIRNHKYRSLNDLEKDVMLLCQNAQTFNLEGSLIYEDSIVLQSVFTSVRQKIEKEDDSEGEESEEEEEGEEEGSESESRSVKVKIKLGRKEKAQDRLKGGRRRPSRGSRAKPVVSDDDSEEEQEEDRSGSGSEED
As to the kind of experiment: Cellular degradation assay, SMARCA4 (Table 1). The test is classed as cell-based.

T1 sequence (P51531 whole entry, species assumed): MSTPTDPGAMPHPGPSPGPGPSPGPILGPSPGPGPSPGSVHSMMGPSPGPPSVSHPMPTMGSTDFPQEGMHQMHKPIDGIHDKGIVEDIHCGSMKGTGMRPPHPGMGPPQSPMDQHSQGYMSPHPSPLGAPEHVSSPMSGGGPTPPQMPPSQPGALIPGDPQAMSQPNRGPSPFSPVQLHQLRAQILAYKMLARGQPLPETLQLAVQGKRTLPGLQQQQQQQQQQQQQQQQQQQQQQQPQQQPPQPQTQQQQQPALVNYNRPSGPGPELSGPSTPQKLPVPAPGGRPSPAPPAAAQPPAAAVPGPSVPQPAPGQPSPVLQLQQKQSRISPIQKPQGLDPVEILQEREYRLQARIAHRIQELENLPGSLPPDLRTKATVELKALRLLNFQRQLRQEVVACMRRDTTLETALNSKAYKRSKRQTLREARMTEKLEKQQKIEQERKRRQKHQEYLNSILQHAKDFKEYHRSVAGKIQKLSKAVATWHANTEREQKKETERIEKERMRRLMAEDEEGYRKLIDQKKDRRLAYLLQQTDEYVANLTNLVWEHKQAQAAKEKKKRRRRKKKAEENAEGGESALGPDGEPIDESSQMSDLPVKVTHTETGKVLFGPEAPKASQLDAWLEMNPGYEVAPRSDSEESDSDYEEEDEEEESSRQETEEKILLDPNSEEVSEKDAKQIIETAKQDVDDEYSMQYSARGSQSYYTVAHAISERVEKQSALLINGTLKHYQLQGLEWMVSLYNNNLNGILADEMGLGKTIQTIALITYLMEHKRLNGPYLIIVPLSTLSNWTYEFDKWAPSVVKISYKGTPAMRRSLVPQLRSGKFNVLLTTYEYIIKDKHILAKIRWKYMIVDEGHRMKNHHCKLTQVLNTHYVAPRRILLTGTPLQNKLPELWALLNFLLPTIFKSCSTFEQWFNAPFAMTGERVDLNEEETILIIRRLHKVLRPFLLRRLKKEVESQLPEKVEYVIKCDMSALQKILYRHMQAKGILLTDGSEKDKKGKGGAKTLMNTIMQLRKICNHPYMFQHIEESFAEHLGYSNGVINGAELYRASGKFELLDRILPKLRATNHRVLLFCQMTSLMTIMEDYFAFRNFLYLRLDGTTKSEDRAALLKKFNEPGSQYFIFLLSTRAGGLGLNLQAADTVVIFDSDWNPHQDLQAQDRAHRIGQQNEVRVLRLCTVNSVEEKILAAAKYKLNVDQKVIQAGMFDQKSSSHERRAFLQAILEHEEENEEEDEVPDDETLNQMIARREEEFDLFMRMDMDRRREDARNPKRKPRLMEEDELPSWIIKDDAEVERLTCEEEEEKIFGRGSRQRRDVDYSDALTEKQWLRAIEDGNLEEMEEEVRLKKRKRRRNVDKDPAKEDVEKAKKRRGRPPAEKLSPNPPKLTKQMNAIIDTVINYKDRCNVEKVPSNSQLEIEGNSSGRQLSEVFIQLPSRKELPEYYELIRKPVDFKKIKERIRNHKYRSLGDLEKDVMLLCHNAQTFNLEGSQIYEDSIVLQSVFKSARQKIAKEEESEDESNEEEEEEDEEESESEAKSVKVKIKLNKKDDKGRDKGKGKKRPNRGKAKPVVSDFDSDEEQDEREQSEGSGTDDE

As usually defined, the DC50 is the concentration giving 50% degradation. Read a high DC50 as degradation only at high concentration. Usually Dmax stands for the greatest extent of degradation seen. Lower therefore signals shallow degradation. Regarding `O=C1CCC(c2ccc(N3CCC4(CC3)CC(CN3CC5(CCN(C(=O)C6(c7ccccc7)CCN(c7cnnc(-c8ccccc8O)c7)CC6)CC5)C3)C4)cc2)C(=O)N1` (racemic) [Example 137, rac-(3R)-3-(4-{2-[(7-{1-[6-(2-hydroxyphenyl)pyridazin-4-yl]-4-phenylpiperidine-4-carbonyl}-2,7-diazaspiro[3.5]nonan-2-yl)methyl]-7-azaspiro[3.5]nonan-7-yl}phenyl)piperidine-2,6-dione], in test [1], the DC50 was 44.4 nM, the Dmax came out at 66.3% and the “Fold Selectivity SMARCA4/2” value was found to be 225. Also, the Dmax in test [2] was 44.9%.

For the compound `O=C1CC[C@H](c2ccc(N3CCC(C(=O)N4CCC5(CC4)CN(CC4(c6ccccc6)CCN(c6cnnc(-c7ccccc7O)c6)CC4)C5)CC3)cc2)C(=O)N1` [Example 164, (3R)-3-(4-{4-[2-({1-[6-(2-hydroxyphenyl)pyridazin-4-yl]-4-phenylpiperidin-4-yl}methyl)-2,7-diazaspiro[3.5]nonane-7-carbonyl]piperidin-1-yl}phenyl)piperidine-2,6-dione], in test [1], it took 2.16 nM to reach half-maximal degradation (DC50), the Dmax came out at 85% and the “Fold Selectivity SMARCA4/2” value came to 2. In test [2], this compound showed a DC50 of 3.77 nM and a Dmax of 86.6%.

`O=C1CC[C@H](c2ccc(N3CCC(CN4CC5CCCC(C4)N(C(=O)C4(c6ccccc6)CCN(c6cnnc(-c7ccccc7O)c6)CC4)C5)CC3)cc2)C(=O)N1` (stereo partly drawn) [Example 45, (3R)-3-(4-{4-[(9-{1-[6-(2-hydroxyphenyl)pyridazin-4-yl]-4-phenylpiperidine-4-carbonyl}-3,9-diazabicyclo[3.3.2]decan-3-yl)methyl]piperidin-1-yl}phenyl)piperidine-2,6-dione]: in test [1], the Dmax was found to be 29.5% and the “Fold Selectivity SMARCA4/2” value was 1. Moreover, the Dmax in test [2] worked out at 9.72%.

With `Cc1cc(C2(C(=O)N(C)C3CCN(CC4CCN(c5ccc(C6CCC(=O)NC6=O)cc5)CC4)CC3)CCN(c3cnnc(-c4ccccc4O)c3)CC2)on1` (racemic) [Example 90, rac-N-{1-[(1-{4-[(3R)-2,6-dioxopiperidin-3-yl]phenyl}piperidin-4-yl)methyl]piperidin-4-yl}-1-[6-(2-hydroxyphenyl)pyridazin-4-yl]-N-methyl-4-(3-methyl-1,2-oxazol-5-yl)piperidine-4-carboxamide], in test [1], half-maximal degradation (DC50) was put at 8.55 nM, the Dmax is 76.5% and the “Fold Selectivity SMARCA4/2” value was found to be 1170. The same compound returned a Dmax in test [2] of 34.8%.

With `O=C1CC[C@H](c2ccc(N3CCC(CN4CCCC5C4CCCN5C(=O)C4(c5ccccc5)CCN(c5cnnc(-c6ccccc6O)c5)CC4)CC3)cc2)C(=O)N1` (stereo partly drawn) [Example 41, (3R)-3-(4-{4-[(5-{1-[6-(2-hydroxyphenyl)pyridazin-4-yl]-4-phenylpiperidine-4-carbonyl}-decahydro-1,5-naphthyridin-1-yl)methyl]piperidin-1-yl}phenyl)piperidine-2,6-dione], in test [1], the Dmax stood at 36.8% and the “Fold Selectivity SMARCA4/2” value amounted to 1. Also, the Dmax in test [2] was found to be 41%.

For the compound `O=C1CCC(c2ccc(N3CCC(F)(CN4CC5(C4)CN(C(=O)C4(c6ccccc6)CCN(c6cnnc(-c7ccccc7O)c6)CC4)C5)CC3)nc2)C(=O)N1` (racemic) [Example 19, rac-(3R)-3-(6-{4-fluoro-4-[(6-{1-[6-(2-hydroxyphenyl)pyridazin-4-yl]-4-phenylpiperidine-4-carbonyl}-2,6-diazaspiro[3.3]heptan-2-yl)methyl]piperidin-1-yl}pyridin-3-yl)piperidine-2,6-dione], in test [1], the DC50 worked out at 24.4 nM, the Dmax came out at 77.9% and the “Fold Selectivity SMARCA4/2” value worked out at 6.42. In test [2], this compound came in with a DC50 of 156 nM and a Dmax of 57%.

Take `O=C1CC[C@H](c2ccc(N3CCC(CN4CCCN(C(=O)C5(c6ccccc6)CCN(c6cnnc(-c7ccccc7O)c6)CC5)CC4)CC3)cc2)C(=O)N1` [Example 46, (3R)-3-(4-{4-[(4-{1-[6-(2-hydroxyphenyl)pyridazin-4-yl]-4-phenylpiperidine-4-carbonyl}-1,4-diazepan-1-yl)methyl]piperidin-1-yl}phenyl)piperidine-2,6-dione]: in test [1], the DC50 turned out to be 33.7 nM, the Dmax was determined as 63.3% and the “Fold Selectivity SMARCA4/2” value is listed as 297.00. For the same compound, the Dmax in test [2] is 45.1%.

With `O=C1CCC(c2ccc(N3CC[C@H](CCN4CC5(C4)CN(C(=O)C4(c6ccccc6)CCN(c6cnnc(-c7ccccc7O)c6)CC4)C5)C3)nc2)C(=O)N1` (mixture of isomers) [Example 181, (3RS)-3-{6-[(3S)-3-[2-(6-{1-[6-(2-hydroxyphenyl)pyridazin-4-yl]-4-phenylpiperidine-4-carbonyl}-2,6-diazaspiro[3.3]heptan-2-yl)ethyl]pyrrolidin-1-yl]pyridin-3-yl}piperidine-2,6-dione], in test [1], the DC50 is 19.6 nM, the Dmax is 72.3% and the “Fold Selectivity SMARCA4/2” value came out at 16. In test [2], this compound gave a DC50 of 317 nM and a Dmax of 42.3%.

The values above are taken from patent US20250051344A1, “BIFUNCTIONAL SELECTIVE DEGRADERS OF SMARCA2 AND THERAPEUTIC USES THEREOF” (Nurix Therapeutics, Inc., priority 2023, published 2025).
